Data taken from patent US7759366B2 (Sanofi-Aventis, priority 2006, dated 2010).
Counter-ions that a name gives are not always drawn. Like-named read-outs stand apart in the source and are kept apart here.

How the values were obtained:
hCB2R = hCB2R (Homo sapiens, UniProt P34972); experiment: In vitro functional assay (FLIPR, intracellular Ca2+) with recombinant HEK293 cells, CB2;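 also: intracellular Ca2+ was tracked with the fluorescent dye Fluo-4 loaded into the cells before test substance addition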
hCB2R, sequence (P34972 whole entry): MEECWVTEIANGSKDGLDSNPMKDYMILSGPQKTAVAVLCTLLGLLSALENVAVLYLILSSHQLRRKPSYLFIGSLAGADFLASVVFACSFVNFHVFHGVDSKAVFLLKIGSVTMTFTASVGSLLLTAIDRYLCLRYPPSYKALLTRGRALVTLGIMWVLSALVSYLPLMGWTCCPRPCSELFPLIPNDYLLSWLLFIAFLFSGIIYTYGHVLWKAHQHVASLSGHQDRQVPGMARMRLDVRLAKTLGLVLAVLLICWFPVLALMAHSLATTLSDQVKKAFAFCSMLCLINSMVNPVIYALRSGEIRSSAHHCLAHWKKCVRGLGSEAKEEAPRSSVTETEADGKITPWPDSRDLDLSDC
Method: Function-testing assays were performed by means of the FLIPR technique (“Fluorometric Imaging Plate Reader”, Molecular Devices Corp.).
To this end, ligand-induced changes in the intracellular concentration of Ca^2+ in recombinant HEK293 cells, which expressed both a cannabinoid receptor (CB1 or CB2) and G-protein Galpha16, were determined. For the studies, cells were sown into 96-well microtiter plates (60 000 cells/well) and left to grow overnight. The medium was removed and the cells were incubated in buffer which contained the fluorescent dye Fluo-4. After this loading with dye, the cells were washed, test substance was added dissolved in buffer, the mixture was incubated for 20 minutes, a known cannabinoid receptor agonist as a reference agonist was added in buffer and, finally, the changes in the intracellular Ca^2+ concentration were measured in the FLIPR unit.

hCB1R [1] = biological target: T1, hCB1R (Homo sapiens, UniProt P21554); experiment: In vitro functional assay (FLIPR, intracellular Ca2+) with recombinant HEK293 cells, CB1; format: cell-based; parameters: expressed in transfected cells; host or cells: HEK293
T1 sequence (P21554 whole entry): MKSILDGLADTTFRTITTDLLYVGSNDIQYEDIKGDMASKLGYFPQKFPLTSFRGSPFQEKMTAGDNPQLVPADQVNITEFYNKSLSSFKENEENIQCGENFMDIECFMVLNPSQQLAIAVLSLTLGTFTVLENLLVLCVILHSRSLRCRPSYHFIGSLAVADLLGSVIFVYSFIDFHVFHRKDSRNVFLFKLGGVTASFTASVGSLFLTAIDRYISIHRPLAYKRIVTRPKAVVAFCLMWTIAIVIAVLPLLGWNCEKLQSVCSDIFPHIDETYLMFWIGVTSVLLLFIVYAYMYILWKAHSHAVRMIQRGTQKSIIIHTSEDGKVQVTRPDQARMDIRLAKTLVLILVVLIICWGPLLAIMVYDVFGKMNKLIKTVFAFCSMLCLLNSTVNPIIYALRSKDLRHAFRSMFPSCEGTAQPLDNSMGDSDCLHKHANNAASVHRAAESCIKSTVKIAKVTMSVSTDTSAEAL
Excerpt: In Vitro Functional Assays with Recombinant Cells:

hCB1R [2] = biological target: T1, hCB1R; experiment: Binding to the CB1 receptor ([3H]-SR141716A displacement)
Method in brief: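 [3H]-SR141716A displacement at hCB1R; test compounds at final 10 μM to 0.005 μM in assay buffer with 1% DMSO, duplicate determinations. Low control 1 μM AM 251, high control binding without compound; IC50 from curve fit, converted to Ki via Cheng-Prusoff using Kd.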

[3] = read-out: hCB2R: FLIPR, IC50, recombinant HEK293 cells expressing CB2 and Galpha16, 20 min preincubation, then reference agonist, Ca2+ change
[4] = recombinant HEK293 cells expressing CB1 and Galpha16, 20 min preincubation, then reference agonist, Ca2+ change, read-out: hCB1R: FLIPR, IC50
[5] = CHO-K1/cannabinoid CB1 protein 2 μg/well, [3H]-SR141716A 0.5 nM, Ki from IC50 by Cheng-Prusoff, average of double determination, read-out: hCB1R, binding Ki

Row | Compound | IC50 (hCB2R; [3]) [µM] | IC50 (hCB1R [1]) [µM] | Ki (hCB1R [2]) [µM] | IC50 (hCB2R) [µM] | IC50 (hCB1R [1]; [4]) [µM] | Ki (hCB1R [2]; [5]) [µM]
1 | CC1(C)C(=O)N(c2ccc(C#N)c(C(F)(F)F)c2)C(=O)N1Cc1ccccc1Nc1ccccc1 [Example 1, 4-[4,4-Dimethyl-2,5-dioxo-3-(2-phenylaminobenzyl)imidazolidin-1-yl]-2-trifluoromethylbenzonitrile] | > 10 | 0.01 | 0.013 |  |  | 
2 | CC1(C)C(=O)N(c2ccc(C#N)c(C(F)(F)F)c2)C(=O)N1Cc1ccccc1Nc1ccc(C(F)(F)F)cc1 [Example 5, 4-{3-[2-(4-trifluoromethylphenylamino)benzyl]-4,4-dimethyl-2,5-dioxoimidazolidin-1-yl}-2-trifluoromethylbenzonitrile] | > 10 | 0.044 | 0.007 |  |  | 
3 | CC1(C)C(=O)N(c2ccc(C#N)c(C(F)(F)F)c2)C(=O)N1Cc1ccccc1Nc1ccc(F)cc1F [Example 11, 4-{3-[2-(2,4-difluorophenylamino)benzyl]-4,4-dimethyl-2,5-dioxoimidazolidin-1-yl}-2-trifluoromethylbenzonitrile] | > 10 | 0.0007 | 0.001 |  |  | 
4 | CC1(C)C(=O)N(c2ccc(C#N)c(C(F)(F)F)c2)C(=O)N1Cc1cccc(Cl)c1Nc1ccc(F)cc1F [Example 42, 4-{3-[5-chloro-6-(2,4-difluorophenylamino)benzyl]-4,4-dimethyl-2,5-dioxoimidazolidin-1-yl}-2-trifluoromethylbenzonitrile] | > 10 | 0.012 | 0.001 |  |  | 
5 | CC1(C)C(=O)N(c2ccc(C#N)c(C(F)(F)F)c2)C(=O)N1Cc1ccc(C(F)(F)F)cc1Nc1ccc(F)cc1F [Example 56, 4-{3-[2-(2,4-difluorophenylamino)-4-trifluoromethylbenzyl]-4,4-dimethyl-2,5-dioxoimidazolidin-1-yl}-2-trifluoromethylbenzonitrile] | > 10 | 0.008 | 0.003 |  |  | 
6 | COC(=O)c1ccc(Nc2ccccc2CN2C(=O)N(c3ccc(C#N)c(C(F)(F)F)c3)C(=O)C2(C)C)cc1 [Example 60, methyl 4-{2-[3-(4-cyano-3-trifluoromethylphenyl)-5,5-dimethyl-2,4-dioxoimidazolidin-1-ylmethyl]phenylamino}benzoate] | > 10 | 0.002 | 0.001 |  |  | 
7 | CC(C)(C)c1cc(N2C(=O)N(Cc3ccccc3Nc3ccc(F)cc3F)C(C)(C)C2=O)ccc1C#N [Example 64, 2-tert-butyl-4-{3-[2-(2,4-difluorophenylamino)benzyl]-4,4-dimethyl-2,5-dioxoimidazolidin-1-yl}benzonitrile] | > 10 | 0.016 | 0.005 |  |  | 
8 | CC1(C)C(=O)N(c2ccnc(C(F)(F)F)c2)C(=O)N1Cc1ccccc1Nc1ccc(F)cc1F [Example 66, 1-[2-(2,4-difluorophenylamino)benzyl]-5,5-dimethyl-3-(2-trifluoromethylpyridin-4-yl)imidazolidine-2,4-dione] |  |  |  | > 10 | 0.025 | 0.007
9 | COc1ccc(Nc2ccccc2CN2C(=O)N(c3ccc(C#N)c(C(F)(F)F)c3)C(=O)C2(C)C)cc1 [Example 67, 4-{3-[2-(4-methoxyphenylamino)benzyl]-4,4-dimethyl-2,5-dioxoimidazolidin-1-yl}-2-trifluoromethylbenzonitrile] | > 10 | 0.001 | 0.001 |  |  | 
10 | COC(=O)c1ccc(Nc2ccccc2CN2C(=O)N(c3ccc(C#N)c(C(F)(F)F)c3)C(=O)C2(C)C)cn1 [Example 90, methyl 5-{2-[3-(4-cyano-3-trifluoromethylphenyl)-5,5-dimethyl-2,4-dioxoimidazolidin-1-ylmethyl]phenylamino}pyridine-2-carboxylate] | > 10 | 0.039 |  |  |  | 
11 | CC1(C)C(=O)N(c2ccc(C#N)c(C(F)(F)F)c2)C(=O)N1Cc1ccccc1Nc1ccc(C(F)(F)F)nc1 [Example 91, 4-{4,4-dimethyl-2,5-dioxo-3-[2-(6-trifluoromethylpyridin-3-ylamino)benzyl]-imidazolidin-1-yl}-2-trifluoromethylbenzonitrile] | > 10 | 0.03 |  |  |  | 
12 | CC1(C)C(=O)N(c2ccc(C#N)c(C(F)(F)F)c2)C(=O)N1Cc1ccccc1Nc1ccc(CC(=O)O)cc1 [Example 92, (4-{2-[3-(4-cyano-3-trifluoromethylphenyl)-5,5-dimethyl-2,4-dioxoimidazolidin-1-ylmethyl]phenylamino}phenyl)acetic acid] |  |  |  | > 10 | 0.137 | 
13 | CC1(C)C(=O)N(c2ccc(C#N)c(C(F)(F)F)c2)C(=O)N1Cc1ccccc1Nc1ccc(CC(N)=O)cc1 [Example 97, 2-(4-{2-[3-(4-Cyano-3-trifluoromethylphenyl)-5,5-dimethyl-2,4-dioxoimidazolidin-1-ylmethyl]phenylamino}phenyl)acetamide] | > 10 | 0.007 |  |  |  | 
14 | CC1(C)C(=O)N(c2ccc(C#N)c(C(F)(F)F)c2)C(=O)N1Cc1ccccc1Nc1ccc(C(N)=O)cc1 [Example 136, 4-{2-[3-(4-Cyano-3-trifluoromethylphenyl)-5,5-dimethyl-2,4-dioxoimidazolidin-1-ylmethyl]phenylamino}benzamide] | > 10 | 0.005 |  |  |  | 
15 | CC1(C)C(=O)N(c2ccc(C#N)c(C(F)(F)F)c2)C(=O)N1Cc1ccccc1Nc1ccc(C(=O)NC(CO)CO)cc1 [Example 137, 4-{2-[3-(4-cyano-3-trifluoromethylphenyl)-5,5-dimethyl-2,4-dioxoimidazolidin-1-ylmethyl]phenylamino}-N-(2-hydroxy-1-hydroxymethylethyl)benzamide] | > 10 |  | 0.051 |  |  | 
16 | CCOC(=O)COc1ccc(Nc2ccccc2CN2C(=O)N(c3ccc(C#N)c(C(F)(F)F)c3)C(=O)C2(C)C)cc1 [Example 138, ethyl (4-{2-[3-(4-cyano-3-trifluoromethylphenyl)-5,5-dimethyl-2,4-dioxoimidazolidin-1-ylmethyl]phenylamino}phenoxy)acetate] | > 10 | 0.004 |  |  |  | 
17 | COC(=O)c1ccc(Nc2ccccc2CN2C(=O)N(c3ccc(C#N)c(C(F)(F)F)c3)C(=O)C2(C)C)cc1OC [Example 140, methyl 4-{2-[3-(4-cyano-3-trifluoromethylphenyl)-5,5-dimethyl-2,4-dioxoimidazolidin-1-ylmethyl]phenylamino}-2-methoxybenzoate] | > 10 |  | 0.026 |  |  | 
18 | CC1OC(=O)c2cc(Nc3ccccc3CN3C(=O)N(c4ccc(C#N)c(C(F)(F)F)c4)C(=O)C3(C)C)ccc2O1 (stereo not shown) [Example 142, 4-{4,4-dimethyl-3-[2-(2-methyl-4-oxo-4H-1,3-benzodioxin-6-ylamino)benzyl]-2,5-dioxoimidazolidin-1-yl}-2-trifluoromethylbenzonitrile] | > 10 |  | 0.003 |  |  | 
19 | CC1(C)C(=O)N(c2ccc(F)c(C(F)(F)F)c2)C(=O)N1Cc1ccccc1Nc1ccc(C(=N)NO)cc1 [Example 143, 4-{2-[3-(4-Fluoro-3-trifluoromethylphenyl)-5,5-dimethyl-2,4-dioxoimidazolidin-1-ylmethyl]phenylamino}-N-hydroxybenzamidine hydrochloride] |  |  |  | > 10 | 0.013 | 
20 | CC1(C)C(=O)N(c2ccc(F)c(C(F)(F)F)c2)C(=O)N1Cc1ccccc1Nc1ccc(C(=N)N)cc1 [Example 144, 4-{2-[3-(4-Fluoro-3-trifluoromethylphenyl)-5,5-dimethyl-2,4-dioxoimidazolidin-1-ylmethyl]phenylamino}benzamidine hydrochloride] |  |  |  | > 10 |  | 0.019
